From ChEMBL document CHEMBL4321837, “Discovery of Potent and Orally Effective Dual Janus Kinase 2/FLT3 Inhibitors for the Treatment of Acute Myelogenous Leukemia and Myeloproliferative Neoplasms” (J Med Chem, 2019)
Calls of active or inactive are those of the source. The rule behind the calls is not given here.

Key:
[1] = test system: HCT-116; assay: Antiproliferative activity against human HCT116 cells assessed as reduction in cell growth after 72 hrs by MTT assay; type: functional, cell-based
[2] = Half life in monkey liver microsomes; type: ADME, Macaca mulatta, Microsome; details: rhesus monkey
[3] = test system: MV4-11; assay: Induction of apoptosis in human MV4-11 cells assessed as late apoptotic cells at 0.4 uM after 24 hrs by Annexin V FITC/PI staining based flow cytometry analysis (reference value: 1.38%); type: functional
[4] = test system: MV4-11; assay: Induction of apoptosis in human MV4-11 cells assessed as necrotic cells at 0.8 uM after 24 hrs by Annexin V FITC/PI staining based flow cytometry analysis (reference value: 0.18%); type: functional
[5] = organism: Homo sapiens; assay: Inhibition of JAK2 V617F mutant/FLT3 in human SET2 cells assessed as reduction in FLT3 phosphorylation after 2 hrs by Western blot analysis; type: cell-based
[6] = test system: MV4-11; assay: Induction of cell cycle arrest in human MV4-11 cells assessed as accumulation at G2/M phase at 0.1 uM after 24 hrs by propidium iodide staining based flow cytometry analysis (reference value: 15.4%); type: functional
[7] = Toxicity in NOD/SCID mouse xenografted with FLT3-ITD-positive human MV4-11 cells assessed as body weight at 30 to 60 mg/kg, po qd for 14 days; type: organism-based; details: in vivo, 336 h
[8] = Toxicity in NOD/SCID mouse xenografted with FLT3-ITD-positive human MV4-11 cells assessed as animal survival at 30 to 60 mg/kg, po qd for 14 days; type: organism-based; details: in vivo
[9] = test system: MV4-11; assay: Induction of apoptosis in human MV4-11 cells assessed as viable cells at 1.6 uM after 24 hrs by Annexin V FITC/PI staining based flow cytometry analysis (reference value: 96.3%); type: functional; details: MV4-11, 24 h, read-out: Activity
[10] = test system: MV4-11; assay: Antitumor activity against FLT3-ITD positive human MV4-11 cells xenografted in NOD/SCID mouse assessed as tumor growth inhibition at 60 mg/kg, po qd for 14 days measured every 2 days for 14 days by caliper method relative to control; type: functional; details: MV4-11, po, read-out: TGI
[11] = biological target: Cytochrome P450 1A2 (Homo sapiens, UniProt P05177); assay: Inhibition of CYP1A2 (unknown origin); type: ADME
[12] = test system: MV4-11; assay: Induction of cell cycle arrest in human MV4-11 cells assessed as accumulation at G2/M phase at 0.005 uM after 24 hrs by propidium iodide staining based flow cytometry analysis (reference value: 15.4%); type: functional
[13] = test system: MDA-MB-453; assay: Antiproliferative activity against human MDA-MB-453 cells assessed as reduction in cell growth after 72 hrs by MTT assay; type: functional, cell-based
[14] = Tmax in Sprague-Dawley rat at 5 mg/kg, po measured up to 24 hrs by LC/MS/MS analysis; type: ADME, organism-based; details: in vivo, 24 h
[15] = test system: MV4-11; assay: Antiproliferative activity against FLT3-ITD-positive human MV4-11 cells assessed as reduction in cell growth after 72 hrs by MTT assay; type: functional, cell-based; details: MV4-11, 72 h
[16] = Oral bioavailability in Sprague-Dawley rat at 5 mg/kg measured up to 24 hrs by LC/MS/MS analysis; type: ADME, organism-based; details: in vivo
[17] = test system: SET-2; assay: Antitumor activity against human SET2 cells overexpressing JAK2 V617F mutant xenografted in NOD/SCID mouse assessed as tumor growth inhibition at 30 mg/kg, po qd for 18 days measured every 2 days for 18 days by caliper method relative to control; type: functional; details: SET-2, po, read-out: TGI
[18] = test system: MV4-11; assay: Induction of apoptosis in human MV4-11 cells assessed as late apoptotic cells at 0.05 uM after 24 hrs by Annexin V FITC/PI staining based flow cytometry analysis (reference value: 1.38%); type: functional
[19] = test system: MDA-MB-231; assay: Antiproliferative activity against human MDA-MB-231 cells assessed as reduction in cell growth after 72 hrs by MTT assay; type: functional, cell-based
[20] = test system: MV4-11; assay: Induction of apoptosis in human MV4-11 cells assessed as early apoptotic cells at 0.05 uM after 24 hrs by Annexin V FITC/PI staining based flow cytometry analysis (reference value: 2.14%); type: functional
[21] = test system: MV4-11; assay: Induction of apoptosis in human MV4-11 cells assessed as viable cells at 0.8 uM after 24 hrs by Annexin V FITC/PI staining based flow cytometry analysis (reference value: 96.3%); type: functional; details: MV4-11, 24 h, read-out: Activity
[22] = biological target: Tyrosine-protein kinase Lck (Homo sapiens, UniProt P06239); assay: Inhibition of recombinant human full length human LCK using KVEKIGEGTYGVV as substrate incubated for 40 mins in presence of [gamma33P]-ATP by scintillation counting based radiometry assay
[23] = test system: MV4-11; assay: Inhibition of JAK2/FLT3 ITD mutant in human MV4-11 cells assessed as reduction in JAK2 phosphorylation at 0.2 uM after 2 hrs by Western blot analysis; type: cell-based
[24] = test system: MV4-11; assay: Induction of apoptosis in human MV4-11 cells assessed as late apoptotic cells at 1.6 uM after 24 hrs by Annexin V FITC/PI staining based flow cytometry analysis (reference value: 1.38%); type: functional
[25] = Cytotoxicity against rat H9c2(2-1) cells assessed as cell viability after 72 hrs by MTT assay; type: cell-based
[26] = Intrinsic clearance in dog liver microsomes; type: ADME, Canis lupus familiaris, Microsome
[27] = test system: MV4-11; assay: Induction of apoptosis in human MV4-11 cells assessed as viable cells at 0.4 uM after 24 hrs by Annexin V FITC/PI staining based flow cytometry analysis (reference value: 96.3%); type: functional; details: MV4-11, 24 h, read-out: Activity
[28] = test system: NCI-H460; assay: Antiproliferative activity against human NCI-H460 cells assessed as reduction in cell growth after 72 hrs by MTT assay; type: functional, cell-based
[29] = test system: IEC-6; assay: Cytotoxicity against rat IEC-6 cells assessed as cell viability after 72 hrs by MTT assay; type: cell-based; details: iec-6, 72 h
[30] = Half life in mouse liver microsomes; type: ADME, Microsome
[31] = test system: MV4-11; assay: Induction of apoptosis in human MV4-11 cells assessed as necrotic cells at 0.05 uM after 24 hrs by Annexin V FITC/PI staining based flow cytometry analysis (reference value: 0.18%); type: functional
[32] = test system: MV4-11; assay: Induction of apoptosis in human MV4-11 cells assessed as early apoptotic cells at 0.8 uM after 24 hrs by Annexin V FITC/PI staining based flow cytometry analysis (reference value: 2.14%); type: functional
[33] = biological target: JAK3/JAK1 (Homo sapiens, UniProt P23458+P52333); assay: Inhibition of JAK1/JAK3 in human PBMC cells assessed as reduction in IL-2-induced STAT5 phosphorylation by flow cytometry; type: cell-based
[34] = test system: MV4-11; assay: Induction of apoptosis in human MV4-11 cells assessed as late apoptotic cells at 0.8 uM after 24 hrs by Annexin V FITC/PI staining based flow cytometry analysis (reference value: 1.38%); type: functional
[35] = test system: MV4-11; assay: Inhibition of JAK2/FLT3 ITD mutant in human MV4-11 cells assessed as reduction in STAT5 phosphorylation at 0.2 uM after 2 hrs by Western blot analysis; type: cell-based
[36] = test system: MV4-11; assay: Induction of apoptosis in human MV4-11 cells assessed as early apoptotic cells at 0.4 uM after 24 hrs by Annexin V FITC/PI staining based flow cytometry analysis (reference value: 2.14%); type: functional

Sequence of Cytochrome P450 1A2 (P05177 whole entry): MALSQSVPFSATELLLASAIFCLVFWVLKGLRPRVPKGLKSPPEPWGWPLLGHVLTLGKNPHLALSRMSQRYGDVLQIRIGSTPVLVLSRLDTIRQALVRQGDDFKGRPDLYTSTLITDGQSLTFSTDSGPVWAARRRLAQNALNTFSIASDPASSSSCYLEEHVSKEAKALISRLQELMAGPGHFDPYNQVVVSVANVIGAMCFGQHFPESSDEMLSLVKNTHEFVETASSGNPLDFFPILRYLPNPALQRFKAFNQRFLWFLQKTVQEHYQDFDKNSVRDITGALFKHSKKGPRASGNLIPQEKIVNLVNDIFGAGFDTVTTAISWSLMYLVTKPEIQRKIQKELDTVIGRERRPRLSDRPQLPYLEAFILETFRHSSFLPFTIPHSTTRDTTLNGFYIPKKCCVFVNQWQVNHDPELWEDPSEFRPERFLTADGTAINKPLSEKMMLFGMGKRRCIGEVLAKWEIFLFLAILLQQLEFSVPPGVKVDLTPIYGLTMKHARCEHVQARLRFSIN
Sequence of Tyrosine-protein kinase Lck (P06239 whole entry): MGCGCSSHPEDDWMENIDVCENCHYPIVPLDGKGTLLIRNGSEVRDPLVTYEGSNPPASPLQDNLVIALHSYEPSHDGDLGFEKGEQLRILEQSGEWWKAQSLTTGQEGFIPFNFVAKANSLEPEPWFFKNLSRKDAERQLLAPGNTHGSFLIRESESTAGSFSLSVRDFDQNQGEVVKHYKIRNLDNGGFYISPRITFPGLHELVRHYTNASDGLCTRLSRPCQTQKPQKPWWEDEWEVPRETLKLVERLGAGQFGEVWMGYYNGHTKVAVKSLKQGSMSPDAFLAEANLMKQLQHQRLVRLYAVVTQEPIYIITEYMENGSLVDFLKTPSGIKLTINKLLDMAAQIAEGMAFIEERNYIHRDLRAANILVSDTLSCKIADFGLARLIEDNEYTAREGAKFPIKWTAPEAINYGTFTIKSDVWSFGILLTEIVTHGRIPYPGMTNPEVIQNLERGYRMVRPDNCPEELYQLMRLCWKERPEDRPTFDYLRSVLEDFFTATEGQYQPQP
Sequence of JAK3/JAK1 (P52333 whole entry): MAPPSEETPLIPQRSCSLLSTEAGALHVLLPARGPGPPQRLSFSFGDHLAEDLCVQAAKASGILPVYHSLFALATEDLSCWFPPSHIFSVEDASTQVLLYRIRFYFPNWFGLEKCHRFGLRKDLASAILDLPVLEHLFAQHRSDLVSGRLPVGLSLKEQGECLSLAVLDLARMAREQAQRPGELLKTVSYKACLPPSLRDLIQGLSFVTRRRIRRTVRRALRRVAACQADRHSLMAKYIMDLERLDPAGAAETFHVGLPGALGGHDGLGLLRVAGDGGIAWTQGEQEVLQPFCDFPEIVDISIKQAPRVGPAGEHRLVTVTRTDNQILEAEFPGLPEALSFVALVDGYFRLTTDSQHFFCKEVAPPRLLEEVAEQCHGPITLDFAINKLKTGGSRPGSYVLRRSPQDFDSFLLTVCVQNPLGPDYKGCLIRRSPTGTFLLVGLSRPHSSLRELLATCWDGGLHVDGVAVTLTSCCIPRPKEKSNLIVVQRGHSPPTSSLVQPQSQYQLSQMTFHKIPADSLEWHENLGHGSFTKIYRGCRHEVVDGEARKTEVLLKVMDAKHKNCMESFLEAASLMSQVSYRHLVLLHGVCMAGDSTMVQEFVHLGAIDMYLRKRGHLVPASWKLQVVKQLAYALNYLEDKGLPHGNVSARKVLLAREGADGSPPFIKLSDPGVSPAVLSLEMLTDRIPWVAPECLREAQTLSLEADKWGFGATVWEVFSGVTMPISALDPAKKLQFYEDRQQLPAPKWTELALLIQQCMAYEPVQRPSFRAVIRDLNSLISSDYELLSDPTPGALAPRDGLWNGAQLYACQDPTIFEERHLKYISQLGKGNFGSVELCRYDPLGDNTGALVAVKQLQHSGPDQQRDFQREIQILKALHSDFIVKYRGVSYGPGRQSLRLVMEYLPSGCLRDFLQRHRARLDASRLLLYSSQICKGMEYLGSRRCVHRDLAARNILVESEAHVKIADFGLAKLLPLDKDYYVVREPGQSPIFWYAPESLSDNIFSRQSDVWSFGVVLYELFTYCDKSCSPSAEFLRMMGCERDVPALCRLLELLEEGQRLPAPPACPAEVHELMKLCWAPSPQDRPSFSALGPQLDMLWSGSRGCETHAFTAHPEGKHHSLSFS
Sequence of JAK3/JAK1 (P23458 whole entry): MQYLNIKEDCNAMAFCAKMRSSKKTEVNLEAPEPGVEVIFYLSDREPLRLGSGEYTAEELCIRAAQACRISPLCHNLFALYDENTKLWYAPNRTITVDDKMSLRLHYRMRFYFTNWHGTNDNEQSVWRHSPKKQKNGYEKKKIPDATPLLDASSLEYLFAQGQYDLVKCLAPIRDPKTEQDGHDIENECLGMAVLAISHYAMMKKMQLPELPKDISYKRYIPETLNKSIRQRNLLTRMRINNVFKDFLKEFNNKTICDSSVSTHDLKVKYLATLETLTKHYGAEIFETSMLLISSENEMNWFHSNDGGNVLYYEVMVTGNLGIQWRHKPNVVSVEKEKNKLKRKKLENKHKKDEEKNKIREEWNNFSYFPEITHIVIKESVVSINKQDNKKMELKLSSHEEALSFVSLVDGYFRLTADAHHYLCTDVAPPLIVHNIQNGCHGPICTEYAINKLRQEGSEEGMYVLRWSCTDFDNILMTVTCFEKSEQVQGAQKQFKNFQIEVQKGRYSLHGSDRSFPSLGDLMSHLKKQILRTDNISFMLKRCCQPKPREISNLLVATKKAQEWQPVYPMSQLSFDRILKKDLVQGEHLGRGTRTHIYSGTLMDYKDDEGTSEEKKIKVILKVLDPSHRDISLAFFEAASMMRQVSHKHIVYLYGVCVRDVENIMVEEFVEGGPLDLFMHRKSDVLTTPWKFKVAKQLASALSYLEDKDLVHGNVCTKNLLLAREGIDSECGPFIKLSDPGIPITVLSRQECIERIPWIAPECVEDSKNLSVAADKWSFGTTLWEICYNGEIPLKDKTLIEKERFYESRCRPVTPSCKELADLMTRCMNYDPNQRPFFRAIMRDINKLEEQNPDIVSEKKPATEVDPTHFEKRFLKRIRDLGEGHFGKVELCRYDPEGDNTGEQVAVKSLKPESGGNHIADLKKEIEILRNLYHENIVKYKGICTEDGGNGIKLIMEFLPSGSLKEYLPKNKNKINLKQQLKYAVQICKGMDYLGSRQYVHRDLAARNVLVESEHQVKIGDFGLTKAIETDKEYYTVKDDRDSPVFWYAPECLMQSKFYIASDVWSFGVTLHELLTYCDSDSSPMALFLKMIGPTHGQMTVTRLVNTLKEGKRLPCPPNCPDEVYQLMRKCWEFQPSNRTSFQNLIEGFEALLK

For `Cc1cnc(Nc2ccc(N3CCC(N(C)CCO)CC3)c(F)c2)nc1-c1cnn(C(C)C)c1`, the Activity [1] was “Active”, the half-life [2] was 23.1 h and the Activity [3] was 26.5%. The Activity [4] was 0.93%, the inhibition [5] was “Dose-dependent effect” and the Activity [6] was 5.04%. The Activity [7] was “Non-Toxic”, the survival at 336 h [8] was 100% and the viability at 1.6 µM [9] was 24.9%. For the same molecule, the inhibition in vivo at 60 mg/kg [10] was 93%, the IC50 [11] was 64400 nM and the Activity [12] was 15.4%. For the same molecule, the Activity [13] was “Active”, the Tmax [14] was 1.5 h and the IC50 [15] was 5.3 nM. For the same molecule, the bioavailability [16] was 58%, the inhibition in vivo at 30 mg/kg [17] was 66% and the Activity [18] was 4.55%. For the same molecule, the Activity [19] was “Active”, the Activity [20] was 5.53% and the viability at 0.8 µM [21] was 46.4%. For the same molecule, the IC50 [22] was 27 nM, the inhibition [23] was “Active” and the Activity [24] was 40.9%. For the same molecule, the Activity [25] was “Non-Toxic”, the CLH [26] was 3.7 µL/min/mg and the viability at 0.4 µM [27] was 51.2%. The Activity [28] was “Active”, the Activity [29] was “Non-Toxic” and the half-life [30] was 6.42 h. The Activity [31] was 0.29%, the Activity [32] was 23.4% and the IC50 [33] was 112 nM. The Activity [34] was 29.3%, the inhibition [35] was “Active” and the Activity [36] was 21.2%.
